The values below come from paper PMC7793531 (International Journal of Molecular Sciences, 2020).

Like-named read-outs stand apart in the source and are kept apart here. Non-standard residues stand in square brackets, D forms with d. Residues, ends and D or L forms follow the SMILES beside them. ξ: configuration not given here. Oic(3aξ,7aξ) = O=C(O)[C@@H]1CC2CCCCC2N1; hArg = N=C(N)NCCCC[C@H](N)C(=O)O; Dab = NCC[C@H](N)C(=O)O

Data set [1] deals with NRP-1-positive breast cancer cells (MDA-MB-231). The data set is described as follows: Labelled urea-peptide hybrid binding assay at 4 °C on cells (FACS), with NRP-1 co-staining. The data set is classed as cell-based, human. An excerpt: VEGF-A165 binds to cell-surface NRP-1 on endothelial cells, effectively reducing surface levels of this receptor, promoting complex internalization and possibly inducing biological effects. Based on this mechanism, peptide carriers for selective drug delivery, such as iRGD peptides, have been recently disclosed. The iRGDs are used to selectively address potential therapeutic agents, e.g., doxorubicin or siRNAs inside malignant cells. We tested our tagged urea–peptide hybrid’s ability to bind human NRP-1-positive breast cancer cells (MDA-MB-231), which expressed large amount of NRP-1 at the cell surface (Figure 6a). A broad range of concentrations between 0 to 100 µg/mL of compound 10 was used to show its binding capacity on cells using fluorescence-activated cell sorting (FACS). […] To follow the impact of the ligation of this peptidomimetic on NRP-1 expression, we verified whether hybrid 10 binding interferes with the antibody used to detect NRP-1. […]
(§1) Cells were harvested using a mix of EDTA/Trypsin buffer (Invitrogen, France) to detach cells from plastic after 5 min exposure at 37 °C. […] After washing with PBS containing 2% FCS, stained cells were analyzed using BD FACSCalibur^TM (San Jose, CA, USA) and FlowJo^TM cell analysis software (FlowJo LLC, Ashland, OR, USA). […]

The target in data set [2] is T1, VEGF-A165/NRP-1 complex (Homo sapiens, UniProt O14786).
T1 construct: purchased R&D Systems
T1 sequence (O14786 22-641 limits assumed): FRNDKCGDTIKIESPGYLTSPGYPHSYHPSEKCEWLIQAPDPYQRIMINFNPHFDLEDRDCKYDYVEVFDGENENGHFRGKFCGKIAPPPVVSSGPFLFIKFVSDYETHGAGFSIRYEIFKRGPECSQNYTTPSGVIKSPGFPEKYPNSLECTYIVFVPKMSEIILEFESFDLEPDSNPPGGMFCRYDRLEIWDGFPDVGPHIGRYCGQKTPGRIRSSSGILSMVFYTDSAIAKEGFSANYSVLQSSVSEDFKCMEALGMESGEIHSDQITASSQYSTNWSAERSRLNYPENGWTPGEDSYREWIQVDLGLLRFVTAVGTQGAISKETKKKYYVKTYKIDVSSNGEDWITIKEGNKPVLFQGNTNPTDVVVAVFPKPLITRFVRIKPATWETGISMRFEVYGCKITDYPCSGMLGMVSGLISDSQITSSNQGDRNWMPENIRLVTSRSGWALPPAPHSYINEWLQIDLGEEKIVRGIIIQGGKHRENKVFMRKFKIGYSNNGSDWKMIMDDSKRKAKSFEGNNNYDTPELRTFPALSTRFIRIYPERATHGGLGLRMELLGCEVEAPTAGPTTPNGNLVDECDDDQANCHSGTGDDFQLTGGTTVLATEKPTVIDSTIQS
Put plainly: Competitive ELISA-like assay, inhibition of bt-VEGF-A165 binding to immobilized NRP-1. The settings on record: recombinant human NRP-1, bt-VEGF-A165, chemiluminescence; read-out: IC50, VEGF-A165/NRP-1 complex inhibitory effect. On the procedure: Inhibitory activity of urea–peptide hybrids against VEGF-A165/NRP-1 complex formation was assessed with a screening ELISA-like assay. NRP-1 was immobilized on microplate wells by simple adsorption and urea–peptide hybrids competed for NRP-1 with biotinylated VEGF-A165 (bt-VEGF-A165). The amount of receptor bound bt-VEGF-A165 was visualized by its interaction with the streptavidin–horseradish peroxidase conjugate (strep-HRP) and the chemiluminescent substrate. The first analyzed group of compounds were analogues 1–3 with the urea bond between L1 and L2. […] The best hybrid in this group was compound 3, which had Lys^U (gDab) branching (where “g” corresponds to guanidinium group), but its IC50 value decreased only 2-fold. Therefore, we assume that no additional interactions between urea bond and the surface of the protein occurred. […] In the case of urea–peptide hybrids, the urea bond might be capable of forming additional hydrogen bonds with protein residues on the surface of NRP-1. The affinity of compounds may conceivably be affected by the colocation of the urea bond and the free amino group of hArg in the branching. In addition, for compounds 4–6, we can observe that decreasing the distance between the free amino group in the main chain and the urea bond in the branching has a positive effect on compounds’ affinity for NRP-1.
This method was previously described for NRP-1 [44, 45, 46]. Briefly, overnight coating at 4 °C of the flat bottom surface of a 96-well plate with 100 μL (200 ng/well) recombinant human NRP-1, NRP-2, VEGFR-1 or VEGFR-2 was followed by non-specific interactions blocking using 0.5% bovine serum albumin (BSA) in PBS. Next, 50 µL of urea–peptide hybrid in PBS and 50 µL (400 ng/mL) of human (bt)-VEGF-A165 in PBS containing 4 µg/mL of heparin were added respectively. Plates were incubated for 2 h at RT, and then washed and treated with streptavidin-horseradish peroxidase conjugate in PBS (1:8000). Next, 100 µL chemiluminescent substrate was added, and luminescence was quantified using Tecan Infinite F200Pro microplate reader (Männedorf, Switzerland). In a positive control (P) only (bt)-VEGF-A165 was present in wells. Not coated by receptor wells were treated as a negative control (N). Percentages of inhibition were calculated by the following formula:100% − [[(S − N)/(P − N)]∙100%](1) where S is the signal intensity measured in wells with urea–peptide hybrid. The IC50 of each urea–peptide hybrid was calculated using the nonlinear regression function with GraphPad Prism Version-5.01 (GraphPad Software, San Diego, CA, USA). Data are presented as log (inhibitor) versus normalized response-variable slope (Figure S16). Data are the means ± SEMs of two or three independent experiments, each performed in triplicate.
On the technique in general: ELISA stands for enzyme-linked immunosorbent assay.

In data set [3] the test system is NRP-1 expression on MDA-MB-231 breast cancer cells. Put plainly: Labelled urea-peptide hybrid binding assay at 37 °C, time course of NRP-1 cell surface expression (FACS). In kind it is cell-based, human. The method, then:
Usually, in the presence of its natural ligand, a transmembrane receptor at the cell surface may induce signaling, internalization of complex and recycling at the cell surface. […] Thus, to identify the mechanism of action of the hybrid 10 on the NRP-1 expression on cells, we followed its expression after a time course exposure of cells at 37 °C. […] This intriguing result focused our attention on tracking the level of expression intensity of NRP-1 on the surfaced of MDA-MB-231 cells exposed on compound 10. […] The median fluorescent intensity after 1 h (T60) of cell exposure on hybrid 10 was 1.5-fold higher than after 5 min of incubation (Figure 7b). […] This hypothesis is strengthened here, since MDA-MB-231 expressed a large amount of NRP-1 at the cell surface, but also had plenty of the cytoplasmic counterpart, reaching a maximum of median fluorescence intensity higher than the restricted level of NRP-1 expression at the surface (Figure 7c).
as §1

The target of data set [4] is T1, VEGF-A165/NRP-1 complex. The note with it: read-out: IC50, VEGF-A165/NRP-1 complex inhibitory effect, cited from earlier work.
Data set [5] in a line: In vitro enzymatic stability in human blood serum (LC-SWATH-MS). The note with it: pooled human blood serum, 37 °C. In kind it is in vitro ADME. The method, then:
Rapid renal clearance and enzymatic degradation are classified as most important disadvantages of peptides as drugs. Covalent linkage to plasma proteins or chemical modifications, including amide bond modifications, might improve their half-lives. We performed proteolytic stability studies in human blood serum to investigate whether the introduction of urea bonds affected the half-lives of compounds from each of synthesized group of hybrids. Compounds 3, 6 and 7 were incubated with human serum at 37 °C. Samples were taken at different time intervals and analyzed using LC-SWATH-MS [88, 89, 90]. […] Hybrids 6 and 7 were stable toward enzymatic degradation, with 50% of each compound still being intact after 96 h (Figure 5). […] Overall, it can be concluded that the substitution of an amide bond with a urea bond has a positive effect on the proteolytic stability of the examined inhibitors.
The study was conducted in full accordance with ethical principles in accordance with the ICH E6 (R2) Guideline for Good Clinical Practice and the Code of Good Customs in Science developed by the Polish Academy of Sciences. Signed consent for using serum was obtained from volunteers. The Rector’s Commission for Ethics of Scientific Research with Human Participation, University of Warsaw, Warsaw, Poland gave the ethical approval (approval number 51/2020). Human blood from four healthy persons was directly drawn into evacuated tubes and left undisturbed at room temperature for 1 h to clot. Tubes were centrifuged at 2500× g for 10 min to prevent possible platelet activation. Serum was pipetted out of the blood collection tubes, pooled and collected in microtubes.
A degradation assay was adapted from a method described previously. Human blood serum was preactivated in Eppendorf ThermoMixer® Comfort (Hamburg, Germany) at 37 °C for 20 min (350 rpm). Next, 20 μL of aqueous urea–peptide hybrid stock solution was added to give ∼750 μg/mL final compound concentration, and incubation was continued. At selected time intervals, 50 μL of the mixture was collected and quenched by adding 200 μL of ACN:H2O:FA mixture (89:10:1, v:v:v). The obtained suspension was vortexed for 1 min (3000 min^−1) and centrifuged for 10 min in 4 °C (11,000× g). 100 μL of supernatant was collected and lyophilized. The samples reconstituted in 1 mL of 10 mM ammonium formate with 0.1% FA were subjected to LC-MS. Relative concentration at time intervals was calculated using peak area of either individual or most intense fragment of compound of interest. Analyst software version 1.7.1 was used for data acquisition, Peak View 2.2 and MultiQuant 2.1 (Sciex, ON) were used for data processing. Detailed analytical data can be found in Supplementary Materials (Figures S17–S45). […]

For the molecule “5/6-FAM-Dab(hArg^U)-Dab-Oic-Arg [Compound 10]”, in data set [1] (0 to 100 µg/mL, FACS), the binding on cells result is “dose-dependent”. Moreover, the “median fluorescence intensity of NRP-1 staining in presence of compound” value in data set [1] (100 μg/ml, 4 °C, 94 in its absence) was 88. Besides, the IC50 on VEGF-A165/NRP-1 complex [2] is 4.04 µM. In addition, the “median fluorescent intensity of NRP-1 after 1 h (T60) relative to 5 min of incubation” value in data set [3] (100 µg/mL, 37 °C) came out at 1.5 fold. The “effect on NRP-1 cell surface expression” value in data set [3] (time course at 37 °C, independently of time exposure) is recorded as “no downmodulation of NRP-1 expression”.
For the molecule `N=C(N)NCCCC[C@H](N)C(=O)NCCCC[C@H](N)C(=O)N[C@@H](CCN)C(=O)N1C2CCCCC2C[C@H]1C(=O)N[C@@H](CCCNC(=N)N)C(=O)O` (stereo partly drawn) [PP, Lys(hArg)-Dab-Oic-Arg, reference compound] (H-K(hArg)[Dab][Oic(3aξ,7aξ)]R-OH), on VEGF-A165/NRP-1 complex [4] (data already published), the IC50 was 2.3 µM. In data set [5], the half-life is 8 h.
Regarding Lys(Arg^U)–Dab–Oic–Arg, the IC50 at VEGF-A165/NRP-1 complex [4] (earlier urea analogue) is 5.5 µM.

Usually half-life stands for the time needed for the level to fall by half in the phase considered.
